Laboratory results: ChEMBL document CHEMBL1149474, “Synthesis and receptor binding properties of chimeric peptides containing a mu-opioid receptor ligand and nociceptin/orphanin FQ receptor ligand Ac-RYYRIK-amide” (Bioorg Med Chem Lett, 2006)
Non-standard residues stand in square brackets, D forms with d. Residues, ends and D or L forms follow the SMILES beside them. βAla = NCCC(=O)O

Assays:
Nociceptin receptor = Nociceptin receptor (Homo sapiens, UniProt P41146); assay: Displacement of [3H]NOC from human ORL1 receptor expressed in HEK293 cells; type: cell-based
Nociceptin receptor, sequence (P41146 whole entry): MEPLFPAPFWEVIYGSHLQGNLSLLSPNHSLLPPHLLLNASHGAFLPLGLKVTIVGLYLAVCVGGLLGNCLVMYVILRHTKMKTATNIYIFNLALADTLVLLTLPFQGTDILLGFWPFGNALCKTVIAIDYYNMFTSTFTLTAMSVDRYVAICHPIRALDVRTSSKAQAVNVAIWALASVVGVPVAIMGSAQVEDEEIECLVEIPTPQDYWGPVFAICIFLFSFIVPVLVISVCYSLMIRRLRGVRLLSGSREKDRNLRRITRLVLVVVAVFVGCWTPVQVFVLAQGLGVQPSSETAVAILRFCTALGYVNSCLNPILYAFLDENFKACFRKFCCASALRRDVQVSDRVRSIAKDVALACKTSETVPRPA

Mu-type opioid receptor = Mu-type opioid receptor (Rattus norvegicus, UniProt P33535); assay: Displacement of [3H]DAMGO from mu opioid receptor in rat brain homogenate; type: tissue-based
Mu-type opioid receptor, sequence (P33535 whole entry): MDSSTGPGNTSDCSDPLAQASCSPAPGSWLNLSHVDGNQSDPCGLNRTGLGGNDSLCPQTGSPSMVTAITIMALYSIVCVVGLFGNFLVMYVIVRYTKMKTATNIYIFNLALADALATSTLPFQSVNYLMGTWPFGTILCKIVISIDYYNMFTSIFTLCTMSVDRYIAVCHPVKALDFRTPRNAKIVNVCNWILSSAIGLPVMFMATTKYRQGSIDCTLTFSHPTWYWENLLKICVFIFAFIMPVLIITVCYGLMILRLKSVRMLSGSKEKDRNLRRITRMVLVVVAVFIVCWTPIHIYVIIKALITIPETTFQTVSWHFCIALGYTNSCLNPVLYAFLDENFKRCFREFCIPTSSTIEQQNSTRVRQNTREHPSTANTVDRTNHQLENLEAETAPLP

Row | Structure (SMILES) | IC50 (Nociceptin receptor) | IC50 (Mu-type opioid receptor)
1 | CC[C@H](C)[C@H](NC(=O)[C@H](CCCN=C(N)N)NC(=O)[C@H](Cc1ccc(O)cc1)NC(=O)[C@H](Cc1ccc(O)cc1)NC(=O)[C@H](CCCN=C(N)N)NC(C)=O)C(=O)N[C@@H](CCCCN)C(=O)N[C@@H](CCCCNC(=O)[C@H](CO)NC(=O)[C@@H]1CCCN1C(=O)[C@H](Cc1ccc(O)cc1)NC(=O)CNC(=O)[C@H](Cc1ccccc1)NC(=O)[C@@H](C)NC(=O)[C@@H](N)Cc1ccc(O)cc1)C(N)=O | 11.6 nM | 
2 | CC[C@H](C)[C@H](NC(=O)[C@H](CCCN=C(N)N)NC(=O)[C@H](Cc1ccc(O)cc1)NC(=O)[C@H](Cc1ccc(O)cc1)NC(=O)[C@H](CCCN=C(N)N)NC(C)=O)C(=O)N[C@@H](CCCCN)C(N)=O |  | > 10000 nM
3 | CC[C@H](C)[C@H](NC(=O)[C@H](CCCN=C(N)N)NC(=O)[C@H](Cc1ccc(O)cc1)NC(=O)[C@H](Cc1ccc(O)cc1)NC(=O)[C@H](CCCN=C(N)N)NC(C)=O)C(=O)N[C@@H](CCCCN)C(=O)N[C@@H](CCCCNC(=O)CCNC(=O)[C@H](Cc1ccccc1)NC(=O)[C@@H](CCCN=C(N)N)NC(=O)[C@@H](N)Cc1ccc(O)cc1)C(N)=O | 0.789 nM | 2.76 nM
4 | CC[C@H](C)[C@H](NC(=O)[C@H](CCCN=C(N)N)NC(=O)[C@H](Cc1ccc(O)cc1)NC(=O)[C@H](Cc1ccc(O)cc1)NC(=O)[C@H](CCCN=C(N)N)NC(C)=O)C(=O)N[C@@H](CCCCN)C(=O)NCC(=O)NCC(=O)NCC(=O)N[C@@H](CCCCNC(=O)CNC(=O)CNC(=O)[C@H](CO)NC(=O)[C@@H]1CCCN1C(=O)[C@H](Cc1ccc(O)cc1)NC(=O)CNC(=O)[C@H](Cc1ccccc1)NC(=O)[C@@H](C)NC(=O)[C@@H](N)Cc1ccc(O)cc1)C(N)=O | 0.0464 nM | 0.00236 nM
5 | N=C(N)NCCC[C@@H](NC(=O)[C@@H](N)Cc1ccc(O)cc1)C(=O)N[C@@H](Cc1ccccc1)C(=O)NCCC(N)=O (H-Y[dR]F[βAla]-NH2) | > 10000 nM | 1.18 nM
6 | C[C@@H](NC(=O)[C@@H](N)Cc1ccc(O)cc1)C(=O)N[C@@H](Cc1ccccc1)C(=O)NCC(=O)N[C@@H](Cc1ccc(O)cc1)C(=O)N1CCC[C@H]1C(=O)N[C@@H](CO)C(N)=O [DERMORPHIN] | > 10000 nM | 0.538 nM
7 | CC[C@H](C)[C@H](NC(=O)[C@H](CCCN=C(N)N)NC(=O)[C@H](Cc1ccc(O)cc1)NC(=O)[C@H](Cc1ccc(O)cc1)NC(=O)[C@H](CCCN=C(N)N)NC(C)=O)C(=O)N[C@@H](CCCCN)C(=O)NCC(=O)NCC(=O)NCC(=O)N[C@@H](CCCCNC(=O)CNC(=O)CNC(=O)CNC(=O)CNC(=O)CNC(=O)CCNC(=O)[C@H](Cc1ccccc1)NC(=O)[C@@H](CCCN=C(N)N)NC(=O)[C@@H](N)Cc1ccc(O)cc1)C(N)=O | 0.0803 nM | 0.0477 nM
